According to PubChem BioAssay (NCI):
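A five-concentration, 48-hour dose response in 96-well plates underlies each endpoint, interpolated linearly between surrounding concentrations. TGI: concentration producing complete growth inhibition.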

Assays:
Assay in all cases: NCI-60 cell line screen, 48 h
NCI-H460 lung = system: NCI-H460 lung
BT-549 breast = system: BT-549 breast
SF-295 CNS = system: SF-295 CNS
OVCAR-3 ovarian = system: OVCAR-3 ovarian
SK-MEL-5 melanoma = system: SK-MEL-5 melanoma
U251 CNS = system: U251 CNS
DU-145 prostate = system: DU-145 prostate
CCRF-CEM leukemia = system: CCRF-CEM leukemia
LOX IMVI melanoma = system: LOX IMVI melanoma
M14 melanoma = system: M14 melanoma
A498 renal = system: A498 renal
OVCAR-4 ovarian = system: OVCAR-4 ovarian
UO-31 renal = system: UO-31 renal
HCT-116 colon = system: HCT-116 colon
TK-10 renal = system: TK-10 renal
SN12C renal = system: SN12C renal
T-47D breast = system: T-47D breast
RPMI-8226 leukemia = system: RPMI-8226 leukemia
ACHN renal = system: ACHN renal

Measured: TGI

Cc1nnc2n1N=C(c1cc(F)c(Cl)cc1Cl)/C(=C/c1ccc3c(c1)OCO3)S2
> 100 µM: all assays above
